Converted amounts (≈) assume the structure as drawn.
Tests used:
Format in all cases: functional
Staphylococcus aureus [1] = assay: Antimicrobial activity against methicillin-resistant, vancomycin-hetroresistant Staphylococcus aureus 618 assessed as time required to induce post antibiotic sub-MIC effect at 0.3 times MIC after 1 hr by plate counting method; settings: Staphylococcus aureus, 618, 1 h
Staphylococcus aureus [2] = assay: Antimicrobial activity against methicillin-resistant, vancomycin-intermediate Staphylococcus aureus 510 assessed as time required to induce post antibiotic sub-MIC effect at 0.3 times MIC after 1 hr by plate counting method; settings: Staphylococcus aureus, 510, 1 h
Streptococcus pneumoniae [3] = assay: Antimicrobial activity against Penicillin-, erythromycin-resistant Streptococcus pneumoniae 37 assessed as time required to induce post antibiotic sub-MIC effect at 0.3 times MIC after 1 hr by plate counting method; settings: Streptococcus pneumoniae, 37, 1 h
Enterococcus faecalis [4] = assay: Antimicrobial activity against vancomycin-sensitive Enterococcus faecalis 10 assessed as time required to induce sub-MIC effect at 0.3 times MIC after 1 hr by plate counting method; settings: Enterococcus faecalis, 10, 1 h
Streptococcus pneumoniae [5] = assay: Antimicrobial activity against Penicillin-, erythromycin-resistant Streptococcus pneumoniae 37 assessed as time required to induce sub-MIC effect at 0.3 times MIC after 1 hr by plate counting method; settings: Streptococcus pneumoniae, 37, 1 h
Staphylococcus aureus [6] = assay: Antimicrobial activity against methicillin-resistant, vancomycin-intermediate Staphylococcus aureus 510 assessed as post antibiotic effect at 10 times MIC after 1 hr by plate counting method; settings: Staphylococcus aureus, 510, 1 h
Enterococcus faecalis [7] = assay: Antimicrobial activity against vancomycin-sensitive Enterococcus faecalis 20 by microdilution method
Enterococcus faecalis [8] = assay: Antimicrobial activity against vancomycin-resistant Enterococcus faecalis 266 assessed as time required to induce sub-MIC effect at 0.4 times MIC after 1 hr by plate counting method; settings: Enterococcus faecalis, 266, 1 h
Staphylococcus aureus [9] = assay: Antimicrobial activity against methicillin-resistant, vancomycin-intermediate Staphylococcus aureus 510 assessed as time required to induce post antibiotic sub-MIC effect at 0.2 times MIC after 1 hr by plate counting method; settings: Staphylococcus aureus, 510, 1 h
Staphylococcus aureus [10] = assay: Antimicrobial activity against methicillin-resistant, vancomycin-resistant Staphylococcus aureus 770 by microdilution method
Enterococcus faecalis [11] = assay: Antimicrobial activity against vancomycin-sensitive Enterococcus faecalis 10 assessed as post antibiotic effect at 10 times MIC after 1 hr by plate counting method; settings: Enterococcus faecalis, 10, 1 h
Staphylococcus aureus [12] = assay: Antimicrobial activity against methicillin-resistant, vancomycin-hetroresistant Staphylococcus aureus 618 assessed as time required to induce post antibiotic sub-MIC effect at 0.2 times MIC after 1 hr by plate counting method; settings: Staphylococcus aureus, 618, 1 h
Streptococcus pneumoniae [13] = assay: Antimicrobial activity against Penicillin-intermediate Streptococcus pneumoniae s1234 assessed as post antibiotic effect at 10 times MIC after 1 hr by plate counting method; settings: s1234, 1 h
Streptococcus pneumoniae [14] = assay: Antimicrobial activity against Penicillin-susceptible Streptococcus pneumoniae ATCC 49617 assessed as time required to induce post antibiotic sub-MIC effect at 0.2 times MIC after 1 hr by plate counting method; settings: ATCC 49617, 1 h
Staphylococcus aureus [15] = assay: Antimicrobial activity against methicillin-susceptible, vancomycin-susceptible Staphylococcus aureus ATCC 29213 assessed as time required to induce post antibiotic sub-MIC effect at 0.3 times MIC after 1 hr by plate counting method; settings: ATCC 29213, 1 h
Enterococcus faecalis [16] = assay: Antimicrobial activity against vancomycin-resistant Enterococcus faecalis 609 assessed as post antibiotic effect at 10 times MIC after 1 hr by plate counting method; settings: Enterococcus faecalis, 609, 1 h
Streptococcus pneumoniae [17] = assay: Antimicrobial activity against Penicillin-susceptible Streptococcus pneumoniae ATCC 49617 assessed as post antibiotic effect at 10 times MIC after 1 hr by plate counting method; settings: ATCC 49617, 1 h
Staphylococcus aureus [18] = assay: Antimicrobial activity against methicillin-susceptible, vancomycin-susceptible Staphylococcus aureus sox1 assessed as time required to induce post antibiotic sub-MIC effect at 0.3 times MIC after 1 hr by plate counting method; settings: sox1, 1 h
Enterococcus faecalis [19] = assay: Antimicrobial activity against vancomycin-resistant Enterococcus faecalis 609 assessed as time required to induce sub-MIC effect at 0.2 times MIC after 1 hr by plate counting method; settings: Enterococcus faecalis, 609, 1 h
Staphylococcus aureus [20] = assay: Antimicrobial activity against methicillin-resistant, vancomycin-resistant Staphylococcus aureus 770 assessed as time required to induce sub-MIC effect at 0.3 times MIC after 1 hr by plate counting method; settings: Staphylococcus aureus, 770, 1 h
Staphylococcus aureus [21] = assay: Antimicrobial activity against methicillin-susceptible, vancomycin-susceptible Staphylococcus aureus ATCC 29213 assessed as time required to induce sub-MIC effect at 0.2 times MIC after 1 hr by plate counting method; settings: ATCC 29213, 1 h
Enterococcus faecalis [22] = assay: Antimicrobial activity against vancomycin-resistant Enterococcus faecalis 609 assessed as time required to induce post antibiotic sub-MIC effect at 0.2 times MIC after 1 hr by plate counting method; settings: Enterococcus faecalis, 609, 1 h
Staphylococcus aureus [23] = assay: Antimicrobial activity against methicillin-susceptible, vancomycin-susceptible Staphylococcus aureus sox1 by microdilution method
Staphylococcus aureus [24] = assay: Antimicrobial activity against Staphylococcus aureus ATCC 29213 infected in neutropenic ICR mouse assessed as post antibiotic effect at 1.56 to 100 mg/kg, sc administered 14 hrs post infection; settings: dose mg/kg 1.56-100; route subcutaneous
Streptococcus pneumoniae [25] = assay: Antimicrobial activity against Penicillin-intermediate Streptococcus pneumoniae s1234 by microdilution method
Streptococcus pneumoniae [26] = assay: Antimicrobial activity against Penicillin-, erythromycin-resistant Streptococcus pneumoniae 37 assessed as time required to induce sub-MIC effect at 0.2 times MIC after 1 hr by plate counting method; settings: Streptococcus pneumoniae, 37, 1 h
Streptococcus pneumoniae [27] = assay: Antimicrobial activity against Penicillin-, erythromycin-resistant Streptococcus pneumoniae 37 assessed as time required to induce post antibiotic sub-MIC effect at 0.4 times MIC after 1 hr by plate counting method; settings: Streptococcus pneumoniae, 37, 1 h
Enterococcus faecalis [28] = assay: Antimicrobial activity against vancomycin-sensitive Enterococcus faecalis 20 assessed as time required to induce post antibiotic sub-MIC effect at 0.2 times MIC after 1 hr by plate counting method; settings: Enterococcus faecalis, 20, 1 h
Enterococcus faecalis [29] = assay: Antimicrobial activity against vancomycin-sensitive Enterococcus faecalis 20 assessed as time required to induce sub-MIC effect at 0.4 times MIC after 1 hr by plate counting method; settings: Enterococcus faecalis, 20, 1 h
Streptococcus pneumoniae [30] = assay: Antimicrobial activity against Penicillin-intermediate Streptococcus pneumoniae s1234 assessed as time required to induce sub-MIC effect at 0.3 times MIC after 1 hr by plate counting method
Streptococcus pneumoniae [31] = assay: Antimicrobial activity against Penicillin-susceptible Streptococcus pneumoniae ATCC 49617 assessed as time required to induce post antibiotic sub-MIC effect at 0.4 times MIC after 1 hr by plate counting method; settings: ATCC 49617, 1 h
Streptococcus pneumoniae [32] = assay: Antimicrobial activity against Penicillin-intermediate Streptococcus pneumoniae s1234 assessed as time required to induce post antibiotic sub-MIC effect at 0.3 times MIC after 1 hr by plate counting method; settings: s1234, 1 h
Streptococcus pneumoniae [33] = assay: Antimicrobial activity against Penicillin-susceptible Streptococcus pneumoniae s502 assessed as time required to induce post antibiotic sub-MIC effect at 0.4 times MIC after 1 hr by plate counting method; settings: s502, 1 h
Staphylococcus aureus [34] = assay: Antimicrobial activity against methicillin-resistant, vancomycin-resistant Staphylococcus aureus 770 assessed as time required to induce post antibiotic sub-MIC effect at 0.3 times MIC after 1 hr by plate counting method; settings: Staphylococcus aureus, 770, 1 h
Enterococcus faecalis [35] = assay: Antimicrobial activity against vancomycin-resistant Enterococcus faecalis 266 by microdilution method

For `CCO/N=C(\C(=O)N[C@@H]1C(=O)N2C(C(=O)[O-])=C(Sc3nc(-c4cc[n+](C)cc4)cs3)CS[C@H]12)c1nsc(NP(=O)(O)O)n1` [CEFTAROLINE FOSAMIL], the time (Staphylococcus aureus [1]) was 2.7 h, the time (Staphylococcus aureus [2]) was over 9.1 h and the time (Streptococcus pneumoniae [3]) was 3 h. It also gave a PAE (Enterococcus faecalis [4]) of 1.5 h, a time (Streptococcus pneumoniae [5]) of 0.5 h and a PAE (Staphylococcus aureus [6]) of 1.4 h. The MIC (Enterococcus faecalis [7]) was 0.5 µg/mL (≈ 0.73 µM), the time (Enterococcus faecalis [8]) was 9.5 h and the time (Staphylococcus aureus [9]) was 5.4 h. It also gave an MIC (Staphylococcus aureus [10]) of 1 µg/mL (≈ 1.46 µM), a PAE (Enterococcus faecalis [11]) of 0.5 h and a time (Staphylococcus aureus [12]) of 2.2 h. For the same compound, the PAE (Streptococcus pneumoniae [13]) was 0.7 h, the PAE (Streptococcus pneumoniae [14]) was 4.1 h and the PAE (Staphylococcus aureus [15]) was 4.5 h. It also gave a PAE (Enterococcus faecalis [16]) of 0.2 h, a PAE (Streptococcus pneumoniae [17]) of 1.6 h and a PAE (Staphylococcus aureus [18]) of 3.6 h. For the same compound, the time (Enterococcus faecalis [19]) was 1.4 h, the time (Staphylococcus aureus [20]) was 0.5 h and the PAE (Staphylococcus aureus [21]) was 0.2 h. For the same compound, the time (Enterococcus faecalis [22]) was 3 h, the MIC (Staphylococcus aureus [23]) was 0.25 µg/mL (≈ 0.365 µM) and the PAE (Staphylococcus aureus [24]) was 0.8 h. It also gave an MIC (Streptococcus pneumoniae [25]) of 0.12 µg/mL (≈ 0.175 µM), a time (Streptococcus pneumoniae [26]) of 0.5 h and a time (Streptococcus pneumoniae [27]) of 3.7 h. It also gave a PAE (Enterococcus faecalis [28]) of 4.1 h, a PAE (Enterococcus faecalis [29]) of 3.6 h and a PAE (Streptococcus pneumoniae [30]) of 0 h. For the same compound, the PAE (Streptococcus pneumoniae [31]) was 7.2 h, the PAE (Streptococcus pneumoniae [32]) was 1.8 h and the PAE (Streptococcus pneumoniae [33]) was 4.5 h. The time (Staphylococcus aureus [34]) was 5 h and the MIC (Enterococcus faecalis [35]) was 2 µg/mL (≈ 2.92 µM).

Source: ChEMBL document CHEMBL1649287, “Postantibiotic effect of ceftaroline against gram-positive organisms” (2009)
